Assay results from paper PMC5063977 (The Journal of Biological Chemistry, 2016).

Experiments:
Assay type in all cases: cell-based
RAMP2-CLR (AM1 receptor) [1] = target: T1, RAMP2-CLR (AM1 receptor) (Homo sapiens, UniProt O60895+Q16602); assay: cAMP accumulation, HEK-293 cells, RAMP2 + CLR; conditions: mean ± S.E.
T1 construct: FLAG; expressed in transfected cells; host or cells: HEK-293 or HEK-293S cells, transient transfection, 1:1 RAMP:CLR
Procedure: (§1) HEK-293 cells were transfected with FuGENE 6 (Roche Applied Science) in accordance with the manufacturer's instructions using a 1:3 (w:v) DNA:FuGENE ratio and a 1:1 ratio of RAMP to CLR. […] The transfected cell lines were grown for 24–48 h prior to assaying.
The transfected HEK-293 cells were washed in PBS, resuspended in stimulation buffer (PBS containing 0.1% BSA and 0.5 mM IBMX), and seeded at 2000 cells/well in 384-well white Optiplates. Ligands were added in the range of 1 pM to 1 mM, and cAMP accumulation was measured after 30 min of stimulation using a LANCE® cAMP detection kit (PerkinElmer Life Sciences). […] Plates were read using a Mithras LB 940 multimode microplate reader (Berthold Technologies). […] Values were converted to concentration using a cAMP standard curve performed in parallel.
Data analysis for cAMP assays was performed in GraphPad Prism 6.0f (San Diego, CA). Data were fitted to obtain concentration-response curves using either the three-parameter logistic equation (for pEC50 values) or the operational model for partial agonism ([34]) to obtain values of efficacy (log τ) and the equilibrium dissociation constant (log Ka). These values were then used to quantify signaling bias as change in log (τ/Ka) relative to the natural cognate ligand for the respective receptor ([41]). […] Statistical differences were analyzed using one-way ANOVA or Student's t test as appropriate with post hoc Bonferroni's or Dunnett's multiple comparisons, and p < 0.05 was considered significant. […] For RT-PCR, normalization to the internal standard GAPDH was performed to reduce variance and enable a comparison between different cell lines. To quantitate the ligand-dependent response in the yeast system, a strain lacking GPA1 (MMY11), grown in rich medium, was used as a standard ([72]). As GPA1 is not present in this strain, the Gβγ subunits are unregulated and free to signal, allowing us to determine the maximal response of our system. […] For the mammalian cell-based assays, data analysis was carried out as for the yeast curves. […]

RAMP2-CLR (AM1 receptor) [2] = target: T1, RAMP2-CLR (AM1 receptor); assay: (Ca^2+)i mobilization, HEK-293S cells, RAMP2 + CLR; conditions: HEK293S, percentage of maximal (Ca^2+)i release with 10 μM ionomycin, mean ± S.E., n = 5
Procedure: as §1
Transfected HEK-293 cells were grown to confluence in black, clear bottomed, 96-well plates. […] Cells were then washed followed by the addition of 100 μl of Ca^2+-free Hanks' balanced salt solution. […] Recordings were obtained every 0.5 s for 120 s. Peak magnitude was calculated using five-point smoothing followed by correction against background fluorescence. The peak was used to generate concentration-response curves and normalized relative to 10 μM ionomycin.
Data analysis for cAMP assays was performed in GraphPad Prism 6.0f (San Diego, CA). […] These values were then used to quantify signaling bias as change in log (τ/Ka) relative to the natural cognate ligand for the respective receptor ([41]). […] Statistical differences were analyzed using one-way ANOVA or Student's t test as appropriate with post hoc Bonferroni's or Dunnett's multiple comparisons, and p < 0.05 was considered significant. […] To quantitate the ligand-dependent response in the yeast system, a strain lacking GPA1 (MMY11), grown in rich medium, was used as a standard ([72]). […]

RAMP2-CLR (AM1 receptor) [3] = target: T1, RAMP2-CLR (AM1 receptor); assay: S. cerevisiae growth assay, GPA1/Gαi chimera, RAMP2 + CLR; conditions: percentage of yeast strain MMY11 (lacking GPA1); 20 h; mean ± S.E., n = 6
Procedure: FIGURE 3. […] Reporter gene activity was determined following 20 h of stimulation.
General yeast procedures were performed as described previously ([22], [24]). The human CLR was introduced into yeast cells under the control of the PGK promoter using a plasmid containing ura3 (pDT-PGK). The three human RAMPs were introduced into yeast under the control of the GAPDH promoter using plasmids containing leu2 (p425-GPD) ([25]). S. cerevisiae dual reporter strains expressing chimeras of yeast GPA1(1–467) (GPA1/Gα) with the five C-terminal amino acids of […] human G proteins representing Gαs, Gα16, Gαq, Gαo, Gαi1/2, Gαi3, Gαz, Gα12, Gα13, and Gα14 (MMY84–MMY93) were used in this study ([52]). […] Receptor signaling was measured using the yeast growth assay as described previously ([24]). […] A fluorescein signal was detected as an increase in fluorescence (excitation wavelength = 485 nm, emission wavelength = 535 nm) as a measure of growth. Different concentrations of ligand (0.01 nM–100 μM) were assayed using 96-well plates, and fluorescence was detected using a Tecan Infinite M200 microplate reader (Tecan Ultra Evolution, Reading, UK) or a Mithras LB 940 microplate reader (Berthold Technologies, Harpenden, UK) for 20 h. […]

T1 sequence (Q16602 23-461): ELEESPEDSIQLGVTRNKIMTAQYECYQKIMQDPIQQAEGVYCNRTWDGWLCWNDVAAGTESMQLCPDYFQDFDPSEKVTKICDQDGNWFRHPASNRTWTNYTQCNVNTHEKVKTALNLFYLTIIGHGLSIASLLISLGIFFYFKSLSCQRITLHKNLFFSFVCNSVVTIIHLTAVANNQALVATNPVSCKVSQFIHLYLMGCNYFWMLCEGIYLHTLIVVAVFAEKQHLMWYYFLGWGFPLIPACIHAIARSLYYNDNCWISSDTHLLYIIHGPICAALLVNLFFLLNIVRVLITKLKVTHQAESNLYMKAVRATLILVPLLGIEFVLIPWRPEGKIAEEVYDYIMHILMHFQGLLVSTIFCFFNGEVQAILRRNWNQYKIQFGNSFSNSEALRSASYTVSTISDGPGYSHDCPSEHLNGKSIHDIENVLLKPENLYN
T1 sequence (O60895 43-175): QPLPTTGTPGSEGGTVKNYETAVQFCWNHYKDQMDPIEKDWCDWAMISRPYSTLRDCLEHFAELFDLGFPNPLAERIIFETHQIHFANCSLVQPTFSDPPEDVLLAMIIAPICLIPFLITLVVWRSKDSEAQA

In the case of `CSCC[C@H](NC(=O)[C@H](CC(C)C)NC(=O)[C@H](CCC(N)=O)NC(=O)[C@H](Cc1c[nH]c2ccccc12)NC(=O)[C@H](CC(C)C)NC(=O)[C@H](CCCNC(=N)N)NC(=O)[C@H](Cc1c[nH]cn1)NC(=O)[C@H](CO)NC(=O)[C@H](CC(C)C)NC(=O)[C@H](CC(N)=O)NC(=O)[C@H](CCC(N)=O)NC(=O)[C@@H](NC(=O)[C@H](CCC(N)=O)NC(=O)[C@@H]1CSSC[C@H](NC(=O)CNC(=O)[C@@H](NC(=O)[C@H](CCCNC(=N)N)NC(=O)[C@H](CC(C)C)NC(=O)[C@H](CC(C)C)NC(=O)[C@H](CCC(N)=O)NC(=O)[C@H](C)NC(=O)[C@H](CCC(N)=O)NC(=O)[C@@H](N)[C@@H](C)O)C(C)C)C(=O)N[C@@H](C(C)C)C(=O)N[C@@H](CC(C)C)C(=O)NCC(=O)N[C@@H]([C@@H](C)O)C(=O)N1)C(C)C)C(=O)NCC(=O)N1CCC[C@H]1C(=O)N[C@@H](C)C(=O)NCC(=O)N[C@@H](CCCNC(=N)N)C(=O)N[C@@H](CCC(N)=O)C(=O)N[C@@H](CC(=O)O)C(=O)N[C@@H](CO)C(=O)N[C@@H](C)C(=O)N1CCC[C@H]1C(=O)N[C@H](C(=O)N[C@@H](CC(=O)O)C(=O)N1CCC[C@H]1C(=O)N[C@@H](CO)C(=O)N[C@@H](CO)C(=O)N1CCC[C@H]1C(=O)N[C@@H](Cc1c[nH]cn1)C(=O)N[C@@H](CO)C(=O)N[C@@H](Cc1ccc(O)cc1)C(N)=O)C(C)C` [AM2, adrenomedullin 2], the Emax (RAMP2-CLR (AM1 receptor) [1]; HEK293, PTX treated (200 ng/ml, 16 h), percentage of maximal cAMP with 100 μM forskolin in presence of PTX, n = 6 (Table 3)) is reported as 56 ± 2.2%, the Emax (RAMP2-CLR (AM1 receptor) [1]; HEK293, percentage of maximal cAMP with 100 μM forskolin, HEK-293, 30 min, n = 8 (Table 2)) is reported as 34.1 ± 4% and the Emax (RAMP2-CLR (AM1 receptor) [1]; HEK293, untreated, percentage of maximal cAMP with 100 μM forskolin in presence of PTX, n = 9 (Table 3)) is reported as 36.6 ± 3.5%. It also gave an Emax (RAMP2-CLR (AM1 receptor) [2]) of 20.2 ± 2.8% and an Emax (RAMP2-CLR (AM1 receptor) [3]) of 15.7 ± 2.5%.
